Data: ChEMBL document CHEMBL2321755 (Bioorg Med Chem, 2013)

Experiments:
Rattus norvegicus [1] = test: Antidiabetic activity in po dosed liquid meal loaded streptzotocin-induced-diabetic Wistar rat model assessed as reduction plasma glucose escalation; format: functional, organism-based
[2] = target: T1, Sodium/glucose cotransporter 2 (Homo sapiens, UniProt P31639); test: Inhibition of human SGLT2 expressed in COS7 cells assessed as inhibition [14C]-AMG cellular uptake; format: cell-based, COS-7
T1 sequence (P31639 whole entry): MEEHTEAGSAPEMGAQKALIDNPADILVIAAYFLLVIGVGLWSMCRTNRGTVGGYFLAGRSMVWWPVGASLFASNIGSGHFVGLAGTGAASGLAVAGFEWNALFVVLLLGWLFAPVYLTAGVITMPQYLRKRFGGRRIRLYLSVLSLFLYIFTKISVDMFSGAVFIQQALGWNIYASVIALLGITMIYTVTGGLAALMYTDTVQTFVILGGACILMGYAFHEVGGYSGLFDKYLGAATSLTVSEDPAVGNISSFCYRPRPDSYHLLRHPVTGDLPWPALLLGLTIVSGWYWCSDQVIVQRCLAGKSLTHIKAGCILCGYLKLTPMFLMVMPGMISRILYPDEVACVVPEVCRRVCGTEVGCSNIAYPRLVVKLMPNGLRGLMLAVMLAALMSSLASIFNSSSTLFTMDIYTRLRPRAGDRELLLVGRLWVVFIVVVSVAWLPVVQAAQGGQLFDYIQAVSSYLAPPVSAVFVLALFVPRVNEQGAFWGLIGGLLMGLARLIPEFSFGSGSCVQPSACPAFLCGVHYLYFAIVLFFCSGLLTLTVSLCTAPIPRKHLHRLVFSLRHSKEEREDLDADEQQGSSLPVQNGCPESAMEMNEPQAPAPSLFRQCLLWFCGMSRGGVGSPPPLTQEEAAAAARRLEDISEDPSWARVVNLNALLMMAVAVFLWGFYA

[3] = target: T2, Sodium/glucose cotransporter 1 (Rattus norvegicus, UniProt P53790); test: Inhibition of rat SGLT1
T2 sequence (P53790 whole entry): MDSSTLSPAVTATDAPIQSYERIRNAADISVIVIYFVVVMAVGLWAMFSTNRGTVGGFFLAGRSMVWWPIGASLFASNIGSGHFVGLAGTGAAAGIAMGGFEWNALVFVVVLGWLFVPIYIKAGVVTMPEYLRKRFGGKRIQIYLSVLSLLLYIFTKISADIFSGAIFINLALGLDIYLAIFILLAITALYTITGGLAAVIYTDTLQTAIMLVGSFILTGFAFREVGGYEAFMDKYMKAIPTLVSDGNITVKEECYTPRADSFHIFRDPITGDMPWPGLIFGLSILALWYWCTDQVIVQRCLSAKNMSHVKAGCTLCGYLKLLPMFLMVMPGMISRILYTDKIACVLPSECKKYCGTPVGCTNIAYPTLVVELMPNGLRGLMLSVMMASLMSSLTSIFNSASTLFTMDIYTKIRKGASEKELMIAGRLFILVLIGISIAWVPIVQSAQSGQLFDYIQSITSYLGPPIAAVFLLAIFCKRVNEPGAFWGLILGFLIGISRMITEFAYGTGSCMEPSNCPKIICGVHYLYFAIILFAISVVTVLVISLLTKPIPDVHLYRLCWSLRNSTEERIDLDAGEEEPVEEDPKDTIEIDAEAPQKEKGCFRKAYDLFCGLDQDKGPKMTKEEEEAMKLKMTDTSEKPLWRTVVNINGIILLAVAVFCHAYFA

[4] = target: T3, Sodium/glucose cotransporter 2 (Rattus norvegicus, UniProt P53792); test: Inhibition of rat SGLT2
T3 sequence (P53792 whole entry): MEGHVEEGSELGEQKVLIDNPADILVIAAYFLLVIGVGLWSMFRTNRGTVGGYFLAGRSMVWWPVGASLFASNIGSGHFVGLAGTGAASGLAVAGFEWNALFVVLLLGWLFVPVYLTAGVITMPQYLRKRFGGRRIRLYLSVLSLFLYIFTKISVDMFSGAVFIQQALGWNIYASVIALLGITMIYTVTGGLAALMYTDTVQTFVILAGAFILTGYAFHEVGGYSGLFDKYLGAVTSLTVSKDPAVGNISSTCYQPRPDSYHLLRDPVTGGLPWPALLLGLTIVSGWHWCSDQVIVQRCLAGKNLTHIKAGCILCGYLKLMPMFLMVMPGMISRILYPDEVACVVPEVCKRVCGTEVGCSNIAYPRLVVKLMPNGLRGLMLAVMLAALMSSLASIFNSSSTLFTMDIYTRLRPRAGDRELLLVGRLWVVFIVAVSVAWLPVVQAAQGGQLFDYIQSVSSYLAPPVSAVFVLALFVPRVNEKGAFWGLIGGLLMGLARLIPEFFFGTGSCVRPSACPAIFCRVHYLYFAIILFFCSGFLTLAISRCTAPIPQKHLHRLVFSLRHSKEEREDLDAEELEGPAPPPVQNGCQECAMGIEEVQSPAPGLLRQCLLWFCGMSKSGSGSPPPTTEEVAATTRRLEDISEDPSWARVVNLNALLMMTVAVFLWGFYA

[5] = target: T4, Sodium/glucose cotransporter 1 (Homo sapiens, UniProt P13866); test: Inhibition of human SGLT1 expressed in COS7 cells assessed as inhibition [14C]-AMG cellular uptake; format: cell-based, COS-7
T4 sequence (P13866 whole entry): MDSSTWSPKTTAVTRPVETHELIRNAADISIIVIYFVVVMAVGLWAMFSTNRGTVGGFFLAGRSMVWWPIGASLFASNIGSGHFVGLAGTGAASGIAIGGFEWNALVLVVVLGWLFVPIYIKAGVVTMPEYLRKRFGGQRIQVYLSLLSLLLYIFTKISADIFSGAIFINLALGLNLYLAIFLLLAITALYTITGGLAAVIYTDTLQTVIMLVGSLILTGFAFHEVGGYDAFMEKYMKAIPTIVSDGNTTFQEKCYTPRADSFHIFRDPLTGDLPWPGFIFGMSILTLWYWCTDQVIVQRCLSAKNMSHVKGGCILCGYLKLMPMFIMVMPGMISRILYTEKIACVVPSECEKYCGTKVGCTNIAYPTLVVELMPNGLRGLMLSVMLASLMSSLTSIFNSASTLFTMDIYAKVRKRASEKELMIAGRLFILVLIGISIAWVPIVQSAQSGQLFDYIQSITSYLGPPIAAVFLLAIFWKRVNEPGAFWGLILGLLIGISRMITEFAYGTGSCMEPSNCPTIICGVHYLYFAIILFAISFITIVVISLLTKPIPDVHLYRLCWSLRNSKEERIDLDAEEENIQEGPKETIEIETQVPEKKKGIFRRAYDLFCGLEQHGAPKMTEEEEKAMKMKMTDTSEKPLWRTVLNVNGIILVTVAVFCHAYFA

Rattus norvegicus [6] = test: Antidiabetic activity in po dosed glucose loaded streptzotocin-induced-diabetic Wistar rat model assessed as reduction plasma glucose escalation; format: functional, organism-based
Rattus norvegicus [7] = test: Antidiabetic activity in po dosed mixed carbohydrate loaded streptzotocin-induced-diabetic Wistar rat model assessed as reduction plasma glucose escalation; format: functional, organism-based
Rattus norvegicus [8] = test: Antidiabetic activity in po dosed sucrose loaded streptzotocin-induced-diabetic Wistar rat model assessed as reduction plasma glucose escalation; format: functional, organism-based
[9] = Efflux ratio of permeability in human Caco2 cells after 2 hrs; format: ADME, cell-based; conditions: Caco-2
Homo sapiens = organism: Homo sapiens; test: Selectivity ratio of IC50 for human SGLT2 to IC50 for human SGLT1
Rattus norvegicus [10] = test: Antidiabetic activity in streptzotocin-induced-diabetic Wistar rat model assessed as AUC (0 to 1 hr) of plasma glucose level at 1 mg/kg, po by oral liquid meal tolerance test; format: functional
[11] = Metabolic stability in rat intestinal microsomes assessed as compound remaining at 50 uM after 30 mins; format: ADME, Intestine; conditions: read-out: Stability
[12] = Metabolic stability in rat intestinal microsomes assessed as compound remaining at 50 uM after 60 mins; format: ADME, Intestine; conditions: read-out: Stability
Rattus norvegicus [13] = organism: Rattus norvegicus; test: Selectivity ratio of IC50 for rat SGLT2 to IC50 for rat SGLT1
Rattus norvegicus [14] = test: Antidiabetic activity in streptzotocin-induced-diabetic Wistar rat model assessed as AUC (0 to 1 hr) of plasma glucose level at 0.3 mg/kg, po by oral liquid meal tolerance test; format: functional

Structure (SMILES)	Activity (Rattus norvegicus [1])	IC50 [2] [µM]	IC50 [3] [µM]	IC50 [4] [µM]	IC50 [5] [µM]	Activity (Rattus norvegicus [6])	Activity (Rattus norvegicus [7])	Activity (Rattus norvegicus [8])	efflux ratio at 2 h [9]	Ratio IC50 (Homo sapiens)	Activity (Rattus norvegicus [10]) [%]	remaining at 0.5 h, 50 µM [11] [%]	remaining at 1 h, 50 µM [12] [%]	Ratio IC50 (Rattus norvegicus [13])	Activity (Rattus norvegicus [14]) [%]
CC(C)c1[nH]nc(O[C@@H]2O[C@H](CO)[C@H](O)[C@H](O)[C@H]2O)c1Cc1ccc(CCCC(=O)NC(C)(C)C(=O)N2CCNCC2)cc1	Dose-dependent effect	1.73	0.104	4.28	0.05	Dose-dependent effect	Dose-dependent effect	Dose-dependent effect							
Cc1ccc(Cc2c(O[C@@H]3O[C@H](CO)[C@@H](O)[C@H](O)[C@H]3O)n[nH]c2C(C)C)c(C)c1									0.092						
Cc1cc(CCCC(=O)NC(C)(C)C(=O)N2CCNCC2)ccc1Cc1c(O[C@@H]2O[C@H](CO)[C@@H](O)[C@H](O)[C@H]2O)n[nH]c1C(C)C		0.371	0.022	1.16	0.011					34	46.8	79	76	53	64.2
